From PubChem BioAssay (NCI)
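How tested: cells in 96-well plates exposed to compound for 48 hours at five concentrations. At the TGI there is no net growth.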

tested on: OVCAR-3 ovarian; assay: NCI tumour cell line growth inhibition, 48 h

SMILES | TGI
CC(=O)O[C@H]1CCC2[C@@H]3CC[C@]4(C)CC(=O)C=C[C@]4(C)C3CC[C@@]21C (stereo partly drawn) | 31.6 µM
O=C(CCc1nc(=S)[nH][nH]1)Nc1ccccc1Cl | > 100 µM
O=C(CC(=O)n1nc(-c2ccccc2)c(N=Nc2ccc(Cl)cc2)c1-c1ccccc1)Nc1ccc(Cl)cc1 | > 100 µM
COC(=O)C12CC3CC(CC(C(=O)O)(C3)C1)C2 | > 100 µM
CCCCCCc1cc(C(=O)Nc2ccc(Cl)cc2)nc(=S)[nH]1 | > 1 µM
COc1cc2cc3c4cc(OC)c(OC)cc4cc[n+]3c(C)c2cc1OC (tested in a mixture with another compound) | > 100 µM
CCN(CC)C1CC(O[C@H]2C[C@](O)(C(=O)CO)Cc3c(O)c4c(c(O)c32)C(=O)c2c(OC)cccc2C4=O)OC(C)C1O (stereo partly drawn) | 0.77 µM

tested on: K-562 leukemia; assay: NCI tumour cell line growth inhibition, 48 h

SMILES | TGI
CC(=O)O[C@H]1CCC2[C@@H]3CC[C@]4(C)CC(=O)C=C[C@]4(C)C3CC[C@@]21C (stereo partly drawn) | > 100 µM
O=C(CCc1nc(=S)[nH][nH]1)Nc1ccccc1Cl | > 100 µM
O=C(CC(=O)n1nc(-c2ccccc2)c(N=Nc2ccc(Cl)cc2)c1-c1ccccc1)Nc1ccc(Cl)cc1 | > 66.2 µM
COC(=O)C12CC3CC(CC(C(=O)O)(C3)C1)C2 | > 100 µM
CCCCCCc1cc(C(=O)Nc2ccc(Cl)cc2)nc(=S)[nH]1 | > 100 µM
COc1cc2cc3c4cc(OC)c(OC)cc4cc[n+]3c(C)c2cc1OC (tested in a mixture with another compound) | > 100 µM
CCN(CC)C1CC(O[C@H]2C[C@](O)(C(=O)CO)Cc3c(O)c4c(c(O)c32)C(=O)c2c(OC)cccc2C4=O)OC(C)C1O (stereo partly drawn) | 0.947 µM

tested on: MDA-MB-231 breast; assay: NCI tumour cell line growth inhibition, 48 h

SMILES | TGI
CC(=O)O[C@H]1CCC2[C@@H]3CC[C@]4(C)CC(=O)C=C[C@]4(C)C3CC[C@@]21C (stereo partly drawn) | 77.9 µM
COc1cc2cc3c4cc(OC)c(OC)cc4cc[n+]3c(C)c2cc1OC (tested in a mixture with another compound) | > 100 µM

tested on: LXFL 529 NSCLC; assay: NCI tumour cell line growth inhibition, 48 h

SMILES | TGI
CC(=O)O[C@H]1CCC2[C@@H]3CC[C@]4(C)CC(=O)C=C[C@]4(C)C3CC[C@@]21C (stereo partly drawn) | 28 µM
O=C(CCc1nc(=S)[nH][nH]1)Nc1ccccc1Cl | > 100 µM
O=C(CC(=O)n1nc(-c2ccccc2)c(N=Nc2ccc(Cl)cc2)c1-c1ccccc1)Nc1ccc(Cl)cc1 | > 100 µM
COC(=O)C12CC3CC(CC(C(=O)O)(C3)C1)C2 | > 100 µM
CCCCCCc1cc(C(=O)Nc2ccc(Cl)cc2)nc(=S)[nH]1 | > 100 µM
COc1cc2cc3c4cc(OC)c(OC)cc4cc[n+]3c(C)c2cc1OC (tested in a mixture with another compound) | > 100 µM
CCN(CC)C1CC(O[C@H]2C[C@](O)(C(=O)CO)Cc3c(O)c4c(c(O)c32)C(=O)c2c(OC)cccc2C4=O)OC(C)C1O (stereo partly drawn) | 1.1 µM

tested on: OVCAR-4 ovarian; assay: NCI tumour cell line growth inhibition, 48 h

SMILES | TGI
CC(=O)O[C@H]1CCC2[C@@H]3CC[C@]4(C)CC(=O)C=C[C@]4(C)C3CC[C@@]21C (stereo partly drawn) | 31.8 µM
O=C(CCc1nc(=S)[nH][nH]1)Nc1ccccc1Cl | > 100 µM
O=C(CC(=O)n1nc(-c2ccccc2)c(N=Nc2ccc(Cl)cc2)c1-c1ccccc1)Nc1ccc(Cl)cc1 | > 100 µM
COC(=O)C12CC3CC(CC(C(=O)O)(C3)C1)C2 | > 100 µM
CCCCCCc1cc(C(=O)Nc2ccc(Cl)cc2)nc(=S)[nH]1 | > 100 µM
COc1cc2cc3c4cc(OC)c(OC)cc4cc[n+]3c(C)c2cc1OC (tested in a mixture with another compound) | > 100 µM
CCN(CC)C1CC(O[C@H]2C[C@](O)(C(=O)CO)Cc3c(O)c4c(c(O)c32)C(=O)c2c(OC)cccc2C4=O)OC(C)C1O (stereo partly drawn) | 0.255 µM

tested on: HOP-92 NSCLC; assay: NCI tumour cell line growth inhibition, 48 h

SMILES | TGI
CC(=O)O[C@H]1CCC2[C@@H]3CC[C@]4(C)CC(=O)C=C[C@]4(C)C3CC[C@@]21C (stereo partly drawn) | > 100 µM
O=C(CCc1nc(=S)[nH][nH]1)Nc1ccccc1Cl | > 100 µM
O=C(CC(=O)n1nc(-c2ccccc2)c(N=Nc2ccc(Cl)cc2)c1-c1ccccc1)Nc1ccc(Cl)cc1 | > 100 µM
COC(=O)C12CC3CC(CC(C(=O)O)(C3)C1)C2 | > 100 µM
CCCCCCc1cc(C(=O)Nc2ccc(Cl)cc2)nc(=S)[nH]1 | > 100 µM
COc1cc2cc3c4cc(OC)c(OC)cc4cc[n+]3c(C)c2cc1OC (tested in a mixture with another compound) | > 100 µM
CCN(CC)C1CC(O[C@H]2C[C@](O)(C(=O)CO)Cc3c(O)c4c(c(O)c32)C(=O)c2c(OC)cccc2C4=O)OC(C)C1O (stereo partly drawn) | 0.268 µM

tested on: MALME-3M melanoma; assay: NCI tumour cell line growth inhibition, 48 h

SMILES | TGI
CC(=O)O[C@H]1CCC2[C@@H]3CC[C@]4(C)CC(=O)C=C[C@]4(C)C3CC[C@@]21C (stereo partly drawn) | 34.3 µM
O=C(CCc1nc(=S)[nH][nH]1)Nc1ccccc1Cl | > 100 µM
O=C(CC(=O)n1nc(-c2ccccc2)c(N=Nc2ccc(Cl)cc2)c1-c1ccccc1)Nc1ccc(Cl)cc1 | > 100 µM
COc1cc2cc3c4cc(OC)c(OC)cc4cc[n+]3c(C)c2cc1OC (tested in a mixture with another compound) | > 100 µM
CCN(CC)C1CC(O[C@H]2C[C@](O)(C(=O)CO)Cc3c(O)c4c(c(O)c32)C(=O)c2c(OC)cccc2C4=O)OC(C)C1O (stereo partly drawn) | 0.166 µM

tested on: IGROV1 ovarian; assay: NCI tumour cell line growth inhibition, 48 h

SMILES | TGI
CC(=O)O[C@H]1CCC2[C@@H]3CC[C@]4(C)CC(=O)C=C[C@]4(C)C3CC[C@@]21C (stereo partly drawn) | 58.3 µM
O=C(CCc1nc(=S)[nH][nH]1)Nc1ccccc1Cl | > 100 µM
O=C(CC(=O)n1nc(-c2ccccc2)c(N=Nc2ccc(Cl)cc2)c1-c1ccccc1)Nc1ccc(Cl)cc1 | > 100 µM
COC(=O)C12CC3CC(CC(C(=O)O)(C3)C1)C2 | > 100 µM
CCCCCCc1cc(C(=O)Nc2ccc(Cl)cc2)nc(=S)[nH]1 | > 100 µM
COc1cc2cc3c4cc(OC)c(OC)cc4cc[n+]3c(C)c2cc1OC (tested in a mixture with another compound) | > 100 µM
